We go through 8 compounds from patent US9440983B2, “Pyrrolo[3,2-d]pyrimidine-2,4(3H,5H)-dione derivatives” (Hydra Biosciences, Inc., priority 2014, dated 2016).

Test [1] deals with T1, TRPC5 channel (Homo sapiens, UniProt Q9UL62).
T1 construct: expressed in transfected cells; host or cells: HEK293/TREx (Invitrogen), stably transfected, tetracycline-induced
T1 sequence (Q9UL62 1-973): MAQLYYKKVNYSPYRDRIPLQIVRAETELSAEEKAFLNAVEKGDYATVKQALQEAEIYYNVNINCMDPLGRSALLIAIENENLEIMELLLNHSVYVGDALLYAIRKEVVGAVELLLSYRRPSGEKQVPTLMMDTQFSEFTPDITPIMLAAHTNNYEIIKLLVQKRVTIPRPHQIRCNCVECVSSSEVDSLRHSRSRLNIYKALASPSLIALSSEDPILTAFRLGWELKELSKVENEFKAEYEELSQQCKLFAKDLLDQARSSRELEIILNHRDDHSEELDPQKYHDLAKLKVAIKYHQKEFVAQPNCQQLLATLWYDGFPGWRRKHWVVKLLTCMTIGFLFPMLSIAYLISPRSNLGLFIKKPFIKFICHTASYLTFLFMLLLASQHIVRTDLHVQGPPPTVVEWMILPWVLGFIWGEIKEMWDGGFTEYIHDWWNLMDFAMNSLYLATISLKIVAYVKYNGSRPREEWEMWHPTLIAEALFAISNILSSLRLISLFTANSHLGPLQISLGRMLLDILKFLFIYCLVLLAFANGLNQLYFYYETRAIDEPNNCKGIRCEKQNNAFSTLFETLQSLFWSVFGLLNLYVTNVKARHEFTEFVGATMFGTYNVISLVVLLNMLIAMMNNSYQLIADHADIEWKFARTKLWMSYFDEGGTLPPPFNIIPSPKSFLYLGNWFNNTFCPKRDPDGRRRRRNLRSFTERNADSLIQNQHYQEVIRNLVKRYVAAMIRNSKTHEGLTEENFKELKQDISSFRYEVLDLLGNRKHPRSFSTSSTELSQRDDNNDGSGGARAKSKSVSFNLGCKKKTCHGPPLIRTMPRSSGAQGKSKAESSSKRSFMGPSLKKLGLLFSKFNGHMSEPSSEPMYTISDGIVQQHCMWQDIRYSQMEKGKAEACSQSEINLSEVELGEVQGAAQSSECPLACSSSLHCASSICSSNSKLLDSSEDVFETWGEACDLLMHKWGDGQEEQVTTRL
The test is described as follows: High throughput screening assay: Fluo4 cell-based fluorescence detection of intracellular Ca2+ rise. Particulars: HEK293/TREx cells inducibly expressing TRPC5, high-Ca2+ Ringer (14 mM Ca2+), 7 concentrations in triplicate. The text has this:
The assay depended on detection of the rise in intracellular Ca2+ concentration ([Ca2+]i) following channel activation in cells inducibly expressing the TRPC5 channel. Ca2+ rise was quantified with the use of fluorescent Ca2+ indicators that were loaded into cells and thereafter indicated the [Ca2+]i Ca2+ influx followed activation of the TRPC5 channel. Compounds inhibiting the [Ca2+]i rise were considered hits for further investigation.
The commercially available HEK293/TREx line (Invitrogen) was stably transfected with a TRPC5 construct and screened by conventional calcium imaging to find clones with TRPC5 expression following stimulation with 1 μg/ml tetracycline. These cells were maintained in the growth medium recommended by the manufacturer supplemented with 100 μg/ml hygromycin to promote retention of the TRPC5 construct. After growing to near confluency, cells were plated at a density of ˜35,000 cells/well in 384 well CellBind plates (Corning) in the presence of 1 μg/ml tetracycline, and allowed to grow for 20-30 hrs. A nearly confluent monolayer resulted. Cells were then loaded with Ca2+ dye: Fura-2/AM or Fluo4/AM was added to the wells to a final concentration of 4 μM or 0.5 μM, respectively, and incubated for 80 min or 60 min, respectively, at room temperature. Supernatant was then removed from the cells by inverting plates with a sharp flick, and 25 μl Hank's Balanced Salt Solution (HBSS; 0.185 g/l D-glucose, 0.9767 g/l MgS04 (anhydrous), 0.4 g/l KCl, 0.06 g/l KH2PO4 (anhydrous), 0.35 g/l NaHCO3, 8.0 g/l NaCl, and 0.04788 g/l Na2HPO4 (anhydrous); pH 7.4) was then added to each well. Following ˜0.5 hour for recovery from loading, cells were assayed using the Hamamatsu FDSS 6000 system, which permitted illumination alternately at 340 nm and 380 nm for Fura-2 experiments, or at 485 nm for Fluo4 experiments. Frames were acquired at a rate of 0.2 Hz. During the assay, the plates were continuously vortexed, with pipette mixing of wells following addition of each reagent. For the screening assay, 26 μl of a diluted compound stock (at 50 μM) was added to each well for 2 minutes following the collection of a short (4 frame) baseline. 13 μl 62 mM high-Ca2+ Ringer solution (4.17 ml of normal ringer (with 2 mM Ca2+) plus 5.83 ml of isotonic calcium ringer (105 mM Ca2+; in this ringer all sodium has been replaced with calcium)) was then added to each well, achieving a final concentration of 14 mM Ca2+ and 10 μM test compound. Data was collected for ˜3 minutes following addition of high Ca2+Ringer, where the fluorescent intensity (for Fluo4) and the F340/F380 ratio (for Fura-2) were proportional to the [Ca2+]i Negative controls consisted of HEK293/TREx TRPC5 cells exposed to high Ca2+ solution, but no compound. Positive control conditions consisted of addition of 2-APB, a promiscuous blocker of TRPC5 and other channels, to columns 23 and 24 of the plates, to a final concentration of 200 μM. These controls defined a screening window, and “hits” were defined as those compounds inhibiting the fluorescence response by at least 40%. IC50 values were determined for compounds defined as “hits.” The Fluo4 cell-based fluorescence assay was used to determine the intracellular Ca2+ concentration in the presence of varying drug concentration. Final concentrations of compounds tested were 20 μM, 6.667 μM, 2.222 μM, 0.741 μM, 0.247 μM, 0.082 μM, and 0.027 μM. Compounds were tested in triplicate at all concentrations. Standard software was used to fit IC50 curves.
Additionally or alternatively, efficacy can be represented as % inhibition in the presence (of a given concentration of compound) versus the absence of compound or in comparison to a control compound. For example, efficacy can be represented as % inhibition of ion flux in the presence versus the absence of compound.

Test [2] concerns the target T1, TRPC5 channel. The test is described as follows: Whole-cell patch clamp experiments, TRPC5 current. Format: cell-based. Particulars: whole-cell patch clamp in TRPC5-expressing HEK293 TREx cells; current activated by LaCl3; IC50 estimated. The text has this:
Patch clamp experiments permit the detection of currents through the TRPC5 channel in the cell line described above. In normal whole-cell patch clamp recordings, a glass electrode is brought into contact with a single cell and a high-resistance (gigaohm) seal is established with the cell membrane. The membrane is then ruptured to achieve the whole-cell configuration, permitting control of the voltage of the cell membrane and measurement of currents flowing across the membrane using the amplifier attached to the electrode and resulting in the replacement of cytoplasm with the pipette solution. A perfusion system permits control of the extracellular solution, including the addition of blockers and activators of the current. The current can be activated by including 1.4 μM free Ca^2+ in the pipette (intracellular) solution, and 80 μM LaCl3 in the extracellular solution. TRPC5 cells were induced 20-48 hours, removed from growth plates, and replated at low density (to attain good single-cell physical separation) on glass coverslips for measurement. In some cases, cells were grown in low density overnight on glass coverslips. […] Currents elicited were quantified at −80 mV and +80 mV. The internal solution consisted of 140 mM cesium aspartate, 10 mM HEDTA, 2 mM CaCl2, 2.27 mM MgCl2 and 10 mM HEPES, pH 7.2, with 1,400 nM calculated free Ca^2+. […]

Regarding `Cc1c(-c2cccc(OC(F)(F)F)c2)n(Cc2ccc(Cl)cc2)c2c(=O)n(CCCO)c(=O)n(C)c12` [Compound 29, 5-(4-chlorobenzyl)-3-(3-hydroxypropyl)-1,7-dimethyl-6-(3-(trifluoromethoxy)phenyl)-1H-pyrrolo[3,2-d]pyrimidine-2,4(3H,5H)-dione], half-maximal inhibition against TRPC5 channel [1] (IC50) was put at 421 nM. With `Cn1c(=O)n(CCCO)c(=O)c2c1cc(-c1cccc(Cl)c1)n2Cc1ccc(Cl)cc1` [Compound 30, 5-(4-chlorobenzyl)-6-(3-chlorophenyl)-3-(3-hydroxypropyl)-1-methyl-1H-pyrrolo[3,2-d]pyrimidine-2,4(3H,5H)-dione], the IC50 – broadly, the point on the concentration scale where inhibition reaches its midpoint – on TRPC5 channel [2] is 1.14 nM; against TRPC5 channel [1] it was 503 nM. Take `Cn1c(-c2cccc(OC(F)(F)F)c2)cc2c1c(=O)n(CCCO)c(=O)n2C` [Compound 32, 3-(3-hydroxypropyl)-1,5-dimethyl-6-(3-(trifluoromethoxy)phenyl)-1H-pyrrolo[3,2-d]pyrimidine-2,4(3H,5H)-dione]: the IC50 on TRPC5 channel [1] amounted to 2940 nM. The same measure, in the same setting: under `Cc1c(-c2cccc(OC(F)(F)F)c2)n(C)c2c(=O)n(CCCO)c(=O)n(C)c12` [Compound 33, 3-(3-hydroxypropyl)-1,5,7-trimethyl-6-(3-(trifluoromethoxy)phenyl)-1H-pyrrolo[3,2-d]pyrimidine-2,4(3H,5H)-dione] stands 832 nM; under `Cc1cn(Cc2ccc(Cl)cc2)c2c(=O)n(CCCO)c(=O)n(C)c12` [Compound 34, 5-(4-chlorobenzyl)-3-(3-hydroxypropyl)-1,7-dimethyl-1H-pyrrolo[3,2-d]pyrimidine-2,4(3H,5H)-dione], 3080 nM; under `Cn1c(=O)n(CCCO)c(=O)c2c1cc(-c1cccc(OC(F)(F)F)c1)n2Cc1ccc(Cl)cc1` [Compound 35, 5-(4-chlorobenzyl)-3-(3-hydroxypropyl)-1-methyl-6-(3-(trifluoromethoxy)phenyl)-1H-pyrrolo[3,2-d]pyrimidine-2,4(3H,5H)-dione], 780 nM. The same measure, in the same setting: then `Cc1c(-c2cccc(OC(F)(F)F)c2)[nH]c2c(=O)n(CCCO)c(=O)n(C)c12` [Compound 36, 3-(3-hydroxypropyl)-1,7-dimethyl-6-(3-(trifluoromethoxy)phenyl)-1H-pyrrolo[3,2-d]pyrimidine-2,4(3H,5H)-dione], with 7540 nM. With `Cn1c(=O)n(CCCO)c(=O)c2c1c(-c1cccc(Cl)c1)cn2Cc1ccc(Cl)cc1` [Compound 37, 5-(4-chlorobenzyl)-7-(3-chlorophenyl)-3-(3-hydroxypropyl)-1-methyl-1H-pyrrolo[3,2-d]pyrimidine-2,4(3H,5H)-dione], the IC50 at TRPC5 channel [2] is < 1 nM; against TRPC5 channel [1], 408 nM.
